First: CC#CC(=O)c1c(-c2ccc(F)cc2)nn2c(Cl)cccc12
Second: O=c1ccn2nc(-c3ccncc3)c(-c3ccc(F)cc3)c2[nH]1
The melting point of the first is lower: 182 to 183 °C for the first, 298 to 299 °C for the second.

First: C#CCOc1nsc(-c2ccccc2)n1
Second: CCC(=O)C(=Cc1ccccc1)c1cc(C)cs1
The melting point of the first is lower: 66.9 °C for the first, 98 to 99 °C for the second.

Compared with `Cc1nnc(-c2ccnc(Nc3ccccn3)c2)o1`, `Nc1cc(N2C(=O)COc3ccccc32)ccn1` is lower in melting point: 196 to 197 °C for the first, 189 to 190 °C for the second.

First: CCCC(CCC)n1nnc2c(Oc3c(Br)cc(C(C)C)cc3OC)nc(C)nc21
Second: Cc1cc(C)c(Cc2nc(C)nc(Cl)c2C)c(C)c1
The melting point of the first is higher: 129 to 131 °C for the first, 82 to 84 °C for the second.

First: NC1=NS(=O)N=C1NCCCNc1ccc(Br)cn1 (configuration not stated)
Second: OCc1cnoc1-c1ccc(F)c(Br)c1
The melting point of the first is higher: 215 to 216 °C for the first, 134 to 135 °C for the second.

First: OCc1cccn1CCN1CCC(=C2c3ccccc3CCn3ccnc32)CC1
Second: CC1Oc2c(cc(CN3CCN(c4ccc(C(=O)NC5CC5)cc4)CC3)cc2-c2ccccc2)NC1=O (configuration not stated)
The melting point of the first is lower: 147 °C for the first, 217 to 224 °C for the second.

First: CC(C)(C)C(O)(Cc1ccccc1)C(Cn1ccnc1)Oc1ccc(Cl)cc1 (configuration not stated)
Second: CCOC(=O)C(C)Oc1ccc(OCc2ccccc2)cc1 (configuration not stated)
The melting point of the first is higher: 179 to 181 °C for the first, 36 to 44 °C for the second.

First: CN(C)CC(=O)NCc1cccc(-c2cc3c(Nc4ccc(F)c(Cl)c4)ncnc3[nH]2)c1
Second: CCOC(=O)C(C)c1ccc2oc(Nc3ccc(Cl)cc3)nc2c1 (configuration not stated)
The melting point of the first is higher: 272 to 273 °C for the first, 135 to 137 °C for the second.

First: CC(C)(C)C1=CC(=S)N=N1
Second: COc1nsc(NC(=O)CBr)n1
The melting point of the first is lower: 147 to 148 °C for the first, 198 to 199 °C for the second.

First: Cc1cccc(NC(=O)NCC(=O)N2[C@@H](C(=O)OC(C)(C)C)C[C@@H](C#N)[C@H]2c2ccccc2)c1 (racemic)
Second: CC(NC(=O)OC(C)(C)C)C(=O)Nc1cc(CO)cc(Nc2c3ccccc3nc3ccccc23)c1 (configuration not stated)
The melting point of the first is higher: 150 °C for the first, 131 to 133 °C for the second.

First: COc1cc2c(cc1Nc1ncc(C(F)(F)F)c(N[C@H]3[C@@H](C(N)=O)[C@@H]4C=C[C@H]3C4)n1)CCN(CC(=O)N(C)C)CC2
Second: CCN1C(=O)CCC(C)(C)c2cc(Nc3ncc(Cl)c(Nc4ccc(N5CCOCC5)cc4OC)n3)ccc21
The melting point of the first is lower: 133 to 135 °C for the first, 255 °C for the second.

First: Cc1cc(Cl)cc(OC2=NS(=O)(=O)CS2)c1
Second: Cc1cc2c(c(-c3cc(Cl)ccc3Cl)c1)OC(CN)C2 (configuration not stated)
The melting point of the first is lower: 151 °C for the first, 155 to 156 °C for the second.

Compared with `CCOC(=O)N1CCC(Nc2nc3ncnc(Cl)c3n2Cc2ccc(F)cc2)CC1`, `CCOC(=O)N1CCN(c2nc(N)ccc2[N+](=O)[O-])CC1` is higher in melting point: 127 °C for the first, 132 to 134 °C for the second.

Going from `Nc1[nH]c(=O)c(C(=O)CCC2CCN(CC3CCCCC3)CC2)cc1Cl` to `Clc1ccc2nc(NCC3CCN(CC4COc5ccccc5O4)CC3)sc2c1` (configuration not stated), the melting point falls from 164 °C to 156 °C.

First: O=C1Nc2cccc(-c3ccc(O)cc3)c2/C1=C/c1ccc[nH]1
Second: CS(=O)(=O)c1ccc(-c2cnn(-c3ccc(F)cc3)c(=O)c2-c2cccc(F)c2)cc1
The melting point of the first is higher: 271 to 273 °C for the first, 199 to 201 °C for the second.

First: Cn1cc(C(=O)NCc2ccc(Br)cc2)c(=O)c2cc(CN3CCOCC3)sc21
Second: CCC1Oc2ccc(CN3CCN(c4ccncc4)CC3)cc2NC1=O (configuration not stated)
The melting point of the first is higher: 245 to 246 °C for the first, 113 to 128 °C for the second.

Compared with `CNCCCOc1ccc(S(=O)(=O)c2[nH]c3ccccc3c2C(C)C)cc1`, `Nc1ccc(S(=O)(=O)Nc2cccc3c(Cl)c[nH]c23)cc1` is higher in melting point: 115 °C for the first, 174 to 176 °C for the second.

Compared with `CSc1ccc2ccc(Br)cc2c1`, `CSc1cccc(-n2cnc(-c3ccc(F)cc3)c2-c2ccncc2)c1` is higher in melting point: 80 to 81 °C for the first, 155 to 156 °C for the second.

Compared with `CCOC(=O)C1(F)C(=O)NC(=O)NC1N1CCCCC1` (configuration not stated), `CCOC(=O)C1(CCCC(=O)OC(C)(C)C)CCn2c(cc3ccccc32)C1=O` (configuration not stated) is lower in melting point: 149 to 150 °C for the first, 104 °C for the second.

Compared with `N#CC(c1ccc(F)cc1)c1ccc(F)cc1`, `O=c1c2cc(F)ccc2[nH]c(=S)n1-c1ccccc1Cl` is higher in melting point: 62 to 63.5 °C for the first, 295 to 297 °C for the second.

First: CN(C)CCNCCc1ccc(Nc2ncc3c(n2)-c2ccccc2C(c2cccc(Br)c2)C3)cc1 (configuration not stated)
Second: COc1ccc(Nc2cc3c(cc2Nc2ccccc2)C(=O)NC3=O)cc1
The melting point of the first is lower: 75 to 77 °C for the first, 266 to 267 °C for the second.

First: CC(=O)N(C)c1ccc(OCc2nc3ccccc3s2)cc1
Second: CCOC(=O)Nc1c(C(=O)OCC)oc2cc(OCc3ccccc3)ccc12
The melting point of the first is higher: 119 to 120 °C for the first, 100 °C for the second.

First: CCCOc1ccc2c(c1)C(N(C)S(C)(=O)=O)C(O)C(C)(C)O2 (configuration not stated)
Second: COc1ccc(S(=O)(=O)Nc2c(C)c(C)c3c(c2C)C(c2ccc(C(C)C)cc2)C(C)(C)O3)cc1 (configuration not stated)
The melting point of the first is lower: 149 to 151 °C for the first, 206 to 208 °C for the second.

Compared with `CCCCNc1cc2c(cc1[N+](=O)[O-])OCO2`, `O=C(O)CC(NS(=O)(=O)c1ccc2ccccc2c1)c1ccc2c(c1)OCO2` (configuration not stated) is higher in melting point: 137 °C for the first, 173 to 175 °C for the second.

First: O=C(O)c1cc(=O)c2c(OCC(O)COc3ccc(Br)cc3)cccc2o1 (configuration not stated)
Second: O=C(O)c1ccc(NC(=O)C(CS)Cc2ccccc2)cc1 (configuration not stated)
The melting point of the first is higher: 192 to 194 °C for the first, 166 to 168 °C for the second.

First: Cc1cc(Br)c(C=O)c2ccccc12
Second: CCOC(=O)C1=C(O)c2ccc3ccccc3c2S(=O)(=O)N1C
The melting point of the first is lower: 93 °C for the first, 163 to 165 °C for the second.

Compared with `O=C(c1ccccc1)c1cc([N+](=O)[O-])ccc1N(Cc1ccccc1)C(=O)CBr`, `COc1ccc(C(=O)Nc2ccccc2)cc1NS(=O)(=O)c1ccc2ccccc2c1` is higher in melting point: 149 °C for the first, 223 to 225 °C for the second.

First: COCCOc1ccc(/C=C/C(=O)O)c(Oc2ccc(C(F)(F)F)cc2Cl)c1
Second: O=C(O)c1ccc(OCCn2ccnc2)c(Cl)c1
The melting point of the first is lower: 166 °C for the first, 204 °C for the second.

Compared with `CCN(CC)C(=O)COC(=O)CCc1cc(S(C)(=O)=O)cc(-c2nc(=O)c3ccc(Cl)cc3s2)n1`, `COC(=O)c1ccc(C(=O)NS(=O)(=O)c2ccc(CCNC(=O)c3cc(Cl)ccc3OC)cc2)cn1` is higher in melting point: 179 to 180 °C for the first, 233 °C for the second.

First: CCOC(=O)C(=CN(C)C)C(=O)c1cc2cc(F)c(F)cc2nc1Cl
Second: CCOC(=O)c1cn2c3c(c(Cl)ccc3c1=O)N(C)CC2C (configuration not stated)
The melting point of the first is lower: 140 °C for the first, 259 to 261 °C for the second.

Compared with `CS[C@@H]1CC[C@H](C(=O)O)Cc2onc(-c3ccc(Cl)cc3)c21` (relative stereo), `Cc1nn(C)cc1C(=O)NC1=C(c2ccc(Cl)cc2)CCC1` is lower in melting point: 241 to 242 °C for the first, 103 to 105 °C for the second.

Going from `N#Cc1cnc2cc(O)ccc2c1Nc1ccc2cn[nH]c2c1` to `COc1ccc(C(=O)Nc2ccc3ccc(OC(C)C)nc3n2)cc1`, the melting point falls from greater than 250 °C to 78 °C.

First: COC(=O)c1cc(-c2ccc(Cl)cc2)[nH]c1Cl
Second: Cn1c(-c2c(Cl)cccc2Cl)nc2cc(C(=O)O)ccc21
The melting point of the first is lower: 228 to 232 °C for the first, greater than 250 °C for the second.

First: O[C@@H]1CCc2cc(F)c(F)cc2C1
Second: CC12CCC3c4cc(OCC(F)(F)F)c(O)cc4CCC3C1CCC2O (configuration not stated)
The melting point of the first is lower: 88 to 92 °C for the first, 167 to 168 °C for the second.

Compared with `CNCC(O)c1cccc(F)c1` (configuration not stated), `CC(C)Oc1c(CO)cnc2c(Cl)cccc12` is higher in melting point: 63 to 65 °C for the first, 88 to 89 °C for the second.

Compared with `CCc1ccc(-c2ccc3c(c2)C=C(C(=O)Nc2ccc(CN(C)C4CCOCC4)cc2)CCO3)cc1`, `CC(C)N1C(=O)NC(c2ccc3c(c2)OCO3)c2cc3c(cc21)OCCO3` (configuration not stated) is higher in melting point: 181 to 182 °C for the first, 197 to 200 °C for the second.

Compared with `NC(CC(c1ccccc1)c1ccccc1)(C(=O)O)C1CC(C(=O)O)(C(=O)O)C1` (configuration not stated), `O=C(CN(Cc1ccc(OCc2ccccc2)cc1)C(=O)[C@H](Cc1c[nH]cn1)NC(=O)OCc1ccccc1)NCCCCc1ccccc1` is lower in melting point: 182 to 185 °C for the first, 58 to 61 °C for the second.

First: O=c1cc[nH]c2c([N+](=O)[O-])cc(C(F)(F)F)cc12
Second: COc1cc(OC)nc(Oc2cc([N+](=O)[O-])ccc2C(=O)O)n1
The melting point of the first is higher: 153 to 156 °C for the first, 93 to 96 °C for the second.

First: O=C1NCC(Cc2ccccc2O)O1 (configuration not stated)
Second: Cc1ccccc1C=C(C#N)C#N
The melting point of the first is lower: 93 to 95 °C for the first, 105 to 106 °C for the second.

First: O=C(Nc1ccc2[nH]c(=O)[nH]c2c1)C(=O)N1CCC(Oc2ccc(Cl)cc2)CC1
Second: O=C1c2ccc(Cl)cc2C(=O)N1c1ccccc1
The melting point of the first is higher: 286 to 288 °C for the first, 187 to 189 °C for the second.

First: CCCCNC(=O)c1nc2cnn(CC)c2nc1C
Second: CCc1cnc(C2=NC(C)(C(C)C)C(=O)N2)c(C(=O)NCCCCCC(=O)OC)c1 (configuration not stated)
The melting point of the first is lower: 64 to 65 °C for the first, 101 to 103 °C for the second.

First: Cn1c(C(F)(F)F)c(I)c(=O)n(C)c1=O
Second: CC1(C)OCC(c2nc3c(C(F)(F)F)cccc3c(O)c2C(=O)Nc2nccs2)O1 (configuration not stated)
The melting point of the first is lower: 149 to 151 °C for the first, 250 °C for the second.

First: COC(=O)c1ccc(OC)c(NC(=NCl)c2ccccc2)c1
Second: Cc1ccc(S(=O)(=O)OCC2COc3ccccc3C2)cc1 (configuration not stated)
The melting point of the first is higher: 120 °C for the first, 83 to 84 °C for the second.

First: CCCc1nccn1NCc1cc(C(C)(C)C)c(O)c(C(C)(C)C)c1
Second: CCCCCC1(c2ccc(C)cc2)OCc2c(O)c(C)nc(Cl)c21 (configuration not stated)
The melting point of the first is lower: 122 to 123 °C for the first, 180 °C for the second.

First: CC(=O)N(C(C)=O)c1cc2c(cc1Cl)C(=O)C1(CCOC1=O)O2 (configuration not stated)
Second: CC(=O)CN1CCc2c(c(=O)oc3cc(C(C)C)ccc23)C1
The melting point of the first is higher: 181 to 185 °C for the first, 76 to 79 °C for the second.

Compared with `FC(F)=C(F)CCCCSc1nnc(-c2ccc(C(F)(F)F)cc2)o1`, `O=C(O)CCC(CCCCNS(=O)(=O)c1ccc(Cl)cc1)CCOc1cccnc1` (configuration not stated) is higher in melting point: 40 °C for the first, 86 to 88 °C for the second.

First: CCOC(=O)Cc1c(-c2cccnc2)c2cc(CN3CCN(c4ccccc4)CC3)c(Cl)cc2oc1=O
Second: CCCCc1ncc(/C=C(\Cc2ccc(OC)cc2)c2nnn[nH]2)n1Cc1ccccc1Cl
The melting point of the first is lower: 153 to 157 °C for the first, 168 to 171 °C for the second.

Compared with `CCC(C#N)(C#N)Cc1ccc(Cl)cc1`, `O=S(=O)(c1ccc(Br)cc1)N1CCC1` is higher in melting point: 70.9 °C for the first, 145 °C for the second.

First: CC(C)NC1=NS(=O)(=O)c2cc(N)ccc2N1
Second: O=c1[nH]c2cc(Cl)c(Cl)c(-c3ccncc3)c2[nH]c1=O
The melting point of the first is lower: 278 to 283 °C for the first, greater than 300 °C for the second.

First: Cc1ccc(S(=O)(=O)OCCn2c([N+](=O)[O-])cnc2C=CN(C)C)cc1
Second: Cc1c(F)cccc1NS(=O)(=O)c1cc(S(=O)(=O)Nc2cccc(F)c2C)c2cc(O)ccc2c1
The melting point of the first is lower: 116 to 118 °C for the first, 128 to 130 °C for the second.

Compared with `COc1ccc(-c2nccs2)cc1OC1CCCC1`, `COC(=O)C1CN1C(C)=O` (configuration not stated) is lower in melting point: 72 to 75 °C for the first, 39 to 40 °C for the second.
